Results taken from patent US11912693B2, “Compounds for modulating S1P1 activity and methods of using the same” (TREVENA, INC., priority 2017, dated 2024).

Experiments:
[1] = system: A2780 human ovarian carcinoma; assay: A2780 human ovarian carcinoma xenograft tumor growth delay in athymic nude mice; conditions: 60-day study
Procedure: Female athymic nude mice (Crl:NU(NCr)-Foxnlnu, Charles River Laboratories) were implanted with A2780 human ovarian carcinoma cells to initiate tumor growth.
Each mouse received 1×10^7 cells (0.1 mL cell suspension) subcutaneously in the right flank, and tumors were monitored as their volumes approached the target range of 100 to 150 mm3. Fourteen days later, designated as Day 1 of the study, mice were sorted into six groups of ten each. […] Tumors were measured twice weekly for the study duration.
Starting on Day 1 of the study, six groups (n=10) of female athymic nude mice with established A2780 tumors were treated according to the following plan. Treatments were administered either by intravenous injection (i.v.) or oral gavage (p.o.) and were adjusted to the body weight of the individual animal. Group 1 received Vehicle 1, i.v., once every other day for five doses (qod×5) and Vehicle 2, p.o., once daily to the end of the study (qd to end), and served as the control group for efficacy analysis. Group 2, the paclitaxel monotherapy group, received paclitaxel i.v., qod×5 plus Vehicle 2, p.o., qd to end. Group 3, the ozanimod monotherapy group, received ozanimod p.o., qd to end plus Vehicle 1, i.v., qod×5. Combination Group 4 received ozanimod p.o., qd to end plus paclitaxel i.v., qod×5.
Animals were monitored individually, and each mouse was euthanized when its tumor reached the endpoint volume of 2000 mm3 or on the final day, whichever came first. The time to endpoint (TTE) was calculated for each mouse. Treatment outcome was determined from percent tumor growth delay (% TGD), defined as the percent increase in median TTE for treated versus control mice, with differences in TTE values between groups deemed statistically significant at P<0.05 using logrank survival analysis. Mice were also monitored for complete regression (CR) and partial regression (PR) responses. An animal with a CR at the end of the study was additionally classified as a tumor-free survivor (TFS). Treatment tolerability was assessed by body weight measurements and frequent observation for clinical signs of treatment-related side effects.

[2] = system: spinal nerve ligation peripheral neuropathy; assay: Tactile allodynia and thermal hyperalgesia in spinal nerve ligation (SNL) peripheral neuropathy model; assay type: in vivo, Sprague Dawley rats
Procedure: A cohort of 48 male Sprague Dawley rats, weighing 225-250 g at arrival, was group housed under constant temperature, humidity and a 12-hour light-dark cycle. Following acclimation to the animal colony, the animals were tested for baseline withdrawal responses to mechanical allodynia and thermal hyperalgesia using the methods described in. Chaplan, S. R., Bach, […]., Chung, J. M. and Yaksh, T. L. Quantitative assessment of tactile allodynia in the rat paw. J. Neurosci. Methods 53: 55-63, 1994; Joris, J. L., Dubner, R. and Hargreaves, K. M. Opioid analgesia at Peripheral Sites: a Target for Opioids Released during Stress and Inflammation? Anesthesia and Analgesia 66(12), 1277-81, 1987; and Kim, S. H. and Chung, J. M. An experimental model of peripheral neuropathy produced by segmental spinal nerve ligation in the rat. Pain 50: 335-63, 1992. […] Thermal hyperalgesia was measured at 1 or 1.5 hr after dosing of test articles, vehicle, and reference compound via the specified route(s) on Day 21. […] The time was measured automatically when the paw was withdrawn away from the thermal stimulus. […] Mean thresholds and withdrawal latencies were analyzed via Two Way ANOVA followed by Dunnett's Multiple Comparison tests to SNL+VEH group with differences considered significant at p<0.05.

[3] = system: oxaliplatin induced peripheral neuropathy; assay: Reversal of allodynia induced by oxaliplatin in mice (von Frey frequency method); assay type: in vivo, c57bl/6 mice; conditions: tested 30 min after dosing
Procedure: Compounds were tested for efficacy in mouse models of chemotherapy induced peripheral neuropathy. […] For these studies […]/6 mice are habituated to the test environment and baseline measurements of pain sensitivity are assessed. To determine mechanical responses, the threshold for responses to punctate mechanical stimuli (mechanical hyperalgesia) was tested according to the frequency method. In brief, the plantar surface of the animal hindpaw was stimulated with a single von Frey monofilament (0.4 g) for approximately 1-2 seconds. If there was a withdrawal response, it was recorded as a positive response. A response was defined as a lifting or shaking of the paw upon stimulation. This was repeated ten times for each mouse. The final measurement for each mouse is the % non-response to stimulation for the ten trials. The % non-response to stimulation is converted to a % MPE. For paclitaxel induced peripheral neuropathy, a series of injections of PAC (6 mg/kg, i.p.) on days 1, 3, 5 and 7 is used to induce peripheral neuropathy. After approximately 14 days from the initiation of PAC injections, animals are re-assessed for mechanical sensitivity. […] On test day animals are dosed with compounds either subcutaneously or orally and tested for mechanical response by the frequency method either 30 min (s.c.) or 60 min (p.o.) after drug administration. Data is presented as a % MPE. For oxaliplatin induced peripheral neuropathy, a series of injections of OXA (4 mg/kg, i.p.) on days 1-5 is used to induce peripheral neuropathy. After approximately 14 days from the initiation of PAC injections, animals are re-assessed for mechanical sensitivity. […] On test day animals are dosed with compounds subcutaneously and tested for mechanical response by the frequency method 30 min after drug administration. Data is presented as a % MPE. One or more of the compounds show reversal of chemotherapeutic induced peripheral neuropathy.

`CCC1(CC)CC(=O)c2cc(-c3nc(-c4cccnc4)no3)ccc2O1` [Compound 103, 2,2-diethyl-6-[3-(pyridin-3-yl)-1,2,4-oxadiazol-5-yl]-3,4-dihydro-2H-1-benzopyran-4-one] was tested, and the “percent tumor growth delay (% TGD), monotherapy” value ([1]; monotherapy vs control, paclitaxel i.v. qod×5, ozanimod or Compound 103 p.o. qd to end) was 15%, the study survivors ([1]; n=10 per group, animals surviving the study) was “One” and the “Active Doses in SNL Neuropathy Model (mg/kg) (p < 0.05 compared to SNL + VEH treated mice) MECHANICAL” value ([2]; mechanical allodynia, manual von Frey) was <100 mg/kg. For the same compound, the “Active Doses in SNL Neuropathy Model (mg/kg) (p < 0.05 compared to SNL + VEH treated mice) THERMAL” value ([2]; thermal hyperalgesia, paw withdrawal latency) was <100 mg/kg.

In the case of `COc1ccccc1-c1nc(-c2ccc3c(c2)nnn3C(C)C)no1` [Compound 287, 3-(1-isopropyl-1H-benzo[d][1,2,3]triazol-5-yl)-5-(2-methoxyphenyl)-1,2,4-oxadiazole], the “Screen @ 3 mg/kg sc (% MPE)” value [3] is reported as >50 % MPE.
